Measurements: paper PMC7730205, “Different Sensitivity of Control and MICU1- and MICU2-Ablated Trypanosoma cruzi Mitochondrial Calcium Uniporter Complex to Ruthenium-Based Inhibitors” (International Journal of Molecular Sciences, 2020)

Key:
[1] = biological target: T. cruzi mitochondrial Ca2+ uniporter complex, TcMICU1-KO cells (Trypanosoma cruzi, UniProt Q4DHJ5+Q4DL37+Q4DYG3); test: Ca2+ uptake by digitonin-permeabilized TcMICU1-KO epimastigotes (calcium green-5N); type: cell-based; conditions: ~30 µM Ca2+, 5 mM succinate, initial rate, read-out: IC50, inhibition of mitochondrial Ca2+ uptake
Chain of T. cruzi mitochondrial Ca2+ uniporter complex, TcMICU1-KO cells (Q4DHJ5 entry or part of it): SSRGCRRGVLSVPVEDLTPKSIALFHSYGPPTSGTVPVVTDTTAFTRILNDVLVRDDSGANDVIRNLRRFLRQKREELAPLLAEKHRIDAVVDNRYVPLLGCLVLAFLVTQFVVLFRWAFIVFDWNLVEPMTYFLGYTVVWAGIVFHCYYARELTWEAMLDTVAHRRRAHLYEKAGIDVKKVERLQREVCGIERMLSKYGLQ
Chain of T. cruzi mitochondrial Ca2+ uniporter complex, TcMICU1-KO cells (Q4DL37 entry or part of it): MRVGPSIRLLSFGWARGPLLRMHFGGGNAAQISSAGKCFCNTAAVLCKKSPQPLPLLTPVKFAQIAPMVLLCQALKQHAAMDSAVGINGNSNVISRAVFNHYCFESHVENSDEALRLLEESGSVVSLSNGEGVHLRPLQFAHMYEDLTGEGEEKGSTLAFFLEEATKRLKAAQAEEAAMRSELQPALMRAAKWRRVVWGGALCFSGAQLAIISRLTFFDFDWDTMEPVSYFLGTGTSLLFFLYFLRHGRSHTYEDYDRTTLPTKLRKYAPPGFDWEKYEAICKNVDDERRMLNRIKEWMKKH
Chain of T. cruzi mitochondrial Ca2+ uniporter complex, TcMICU1-KO cells (Q4DYG3 entry or part of it): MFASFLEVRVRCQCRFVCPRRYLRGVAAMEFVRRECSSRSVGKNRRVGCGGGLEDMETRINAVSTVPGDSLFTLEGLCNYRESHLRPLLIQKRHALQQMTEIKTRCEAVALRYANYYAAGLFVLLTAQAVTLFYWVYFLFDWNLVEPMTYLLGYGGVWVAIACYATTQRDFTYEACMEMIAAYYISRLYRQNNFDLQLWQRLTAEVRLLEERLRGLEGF
Text: (§1) We first tested the effect of different concentrations of inhibitors on Ca^2+ uptake, as measured by the change in fluorescence of calcium green 5-N, by digitonin-permeabilized control and TcMICU1-KO and TcMICU2-KO epimastigotes. These KO cells were obtained by the CRISPR/Cas9 method in previous work, and we used cells transfected with a scrambled sgRNA as control.
(§2) Figure 2 Inhibition of mitochondrial Ca^2+ uptake by ruthenium-based compounds. Representative traces of Ca^2+ uptake by digitonin-permeabilized epimastigotes in control (a), TcMICU1-KO (b), and TcMICU2-KO (c) epimastigotes in the presence of different Ru360 concentrations. C, control cells; TcMICU1-KO cells; and TcMICU2-KO cells. The reaction was started after adding 50 μM digitonin (Dig) in the presence of ~30 μM CaCl2, 5 mM succinate, and 0.5 μM calcium green-5N, in the presence or absence of Ru360. Where indicated, 4 μM FCCP was added. (d–f) Dose–response inhibition of the initial rate of mitochondrial Ca^2+ uptake in control (C), TcMICU1-KO (1-KO), and TcMICU2-KO (2-KO) cells treated with RuRed (d), Ru360 (e) or Ru265 (f).
(§3) When dose–response effects were measured in TcMICU1-KO and TcMICU2-KO cells we noticed that these cells were, in general, more sensitive to the inhibitors.
(§4) Cells were collected by centrifugation at 1000× g for 7 min and washed twice with buffer A with glucose (BAG: 116 mM NaCl, 5.4 mM KCl, 0.8 mM MgSO4, 5.5 mM D-glucose, and 50 mM HEPES, pH 7.0). […] Mitochondrial Ca^2+ uptake was initiated by the addition of ~30 μM of free calcium, which was calculated using the software Maxchelator Calculator v1.2 (https://somapp.ucdmc.ucdavis.edu/pharmacology/bers/maxchelator/CaEGTA-NIST.htm). […] Fluorescence changes were monitored in an F-7000 fluorescence spectrophotometer (Hitachi, Dallas, TX, USA) with excitation at 506 nm and emission at 532 nm. […] Kd for Ca^2+ indicator probes in our conditions was determined, according to Chweih et al.. Uptake rate inhibitions were calculated as the first derivative of the absolute values of the slope by using the SLOPE Excel function for 200 points (300 to 500 s). […]

[2] = biological target: T. cruzi mitochondrial Ca2+ uniporter complex, TcMICU2-KO cells (Trypanosoma cruzi, UniProt Q4DHJ5+Q4DL37+Q4DYG3); test: Ca2+ uptake by digitonin-permeabilized TcMICU2-KO epimastigotes (calcium green-5N); type: cell-based; conditions: ~30 µM Ca2+, 5 mM succinate, initial rate, read-out: IC50, inhibition of mitochondrial Ca2+ uptake
Chain of T. cruzi mitochondrial Ca2+ uniporter complex, TcMICU2-KO cells (Q4DL37 entry or part of it): as the sequence (Q4DL37 entry or part of it) above
Chain of T. cruzi mitochondrial Ca2+ uniporter complex, TcMICU2-KO cells (Q4DYG3 entry or part of it): as the sequence (Q4DYG3 entry or part of it) above
Chain of T. cruzi mitochondrial Ca2+ uniporter complex, TcMICU2-KO cells (Q4DHJ5 entry or part of it): as the sequence (Q4DHJ5 entry or part of it) above
Text: as §1, §2, §3, §4

[3] = biological target: T. cruzi mitochondrial Ca2+ uniporter complex (MCUC), control cells (Trypanosoma cruzi, UniProt Q4DHJ5+Q4DL37+Q4DYG3); test: Ca2+ uptake by digitonin-permeabilized control epimastigotes (calcium green-5N); type: cell-based; conditions: control (scrambled sgRNA) epimastigotes, ~30 µM Ca2+, 5 mM succinate, initial rate, read-out: IC50, inhibition of mitochondrial Ca2+ uptake
Chain of T. cruzi mitochondrial Ca2+ uniporter complex (MCUC), control cells (Q4DL37 entry or part of it): as the sequence (Q4DL37 entry or part of it) above
Chain of T. cruzi mitochondrial Ca2+ uniporter complex (MCUC), control cells (Q4DHJ5 entry or part of it): as the sequence (Q4DHJ5 entry or part of it) above
Chain of T. cruzi mitochondrial Ca2+ uniporter complex (MCUC), control cells (Q4DYG3 entry or part of it): as the sequence (Q4DYG3 entry or part of it) above
Chain of T. cruzi mitochondrial Ca2+ uniporter complex (MCUC), control cells (Q4E667 entry or part of it, further chain): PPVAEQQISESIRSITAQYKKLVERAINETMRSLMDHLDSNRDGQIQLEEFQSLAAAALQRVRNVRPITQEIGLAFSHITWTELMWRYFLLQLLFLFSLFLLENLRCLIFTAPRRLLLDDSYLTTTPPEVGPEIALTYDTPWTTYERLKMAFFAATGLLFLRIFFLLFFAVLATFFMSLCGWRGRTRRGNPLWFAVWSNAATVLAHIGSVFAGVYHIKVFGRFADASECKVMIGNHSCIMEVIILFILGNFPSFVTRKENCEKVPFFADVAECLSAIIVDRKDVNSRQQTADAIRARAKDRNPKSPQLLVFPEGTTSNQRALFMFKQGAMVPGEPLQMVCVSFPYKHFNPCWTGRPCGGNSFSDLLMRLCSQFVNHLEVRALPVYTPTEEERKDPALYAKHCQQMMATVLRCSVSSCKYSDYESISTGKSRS
Text: as §1
As is shown in Figure 2a, extramitochondrial Ca^2+ was sequestered in the mitochondria of control cells and released by the uncoupler FCCP.
as §2, §4

[4] = test system: T. cruzi epimastigotes (control, TcMICU1-KO, TcMICU2-KO); test: Mitochondrial membrane potential of digitonin-permeabilized epimastigotes (safranine O); type: cell-based, Trypanosoma cruzi; conditions: TcMICU1-KO or TcMICU2-KO cells, succinate
Text: To determine whether the defect in mitochondrial Ca^2+ uptake in the presence of inhibitors was not secondary to mitochondrial membrane depolarization, we measured the mitochondrial membrane potential (Δψm) of digitonin-permeabilized epimastigotes using safranine O in the presence of succinate as mitochondrial substrate.
Figure 3 Effect of inhibitors on the mitochondrial membrane potential of epimastigotes. Changes in mitochondrial membrane potential (Δψm) of digitonin-permeabilized epimastigotes as detected by changes in safranine O fluorescence in control (a), TcMICU1-KO (b), and TcMICU2-KO (c) epimastigotes in the absence or presence of inhibitors. Cells (5 × 10^7) were added to the reaction buffer (2 mL) containing 0.2% BSA, 5 mM succinate, 50 μM EGTA and 5 μM safranine O. The reaction was started with 50 μM digitonin (DIG) in the presence or absence of the inhibitor, and 250 μM ADP, 1.5 μM carboxyatractyloside (CAT), 50 μM CaCl2 (Ca^2+), 200 μM EGTA, and 4 μM FCCP were added when indicated. A decrease in fluorescence after permeabilization with digitonin indicated the accumulation of the dye in energized mitochondria. The addition of ADP produced a small dissipation of membrane potential, indicating ADP phosphorylation. Δψm returned to its initial level after the addition of the adenine nucleotide translocator inhibitor CAT. The addition of FCCP collapsed the membrane potential. (d) Changes in safranine O fluorescence after digitonin addition (between 30 and 60 s) in control (C), TcMICU1-KO and TcMICU2-KO epimastigotes. […] Changes in safranine O fluorescence in control (C) (e), TcMICU1-KO (1-KO) (f), and TcMICU2-KO (2-KO) (g) epimastigotes after addition of ADP from three experiments like that shown in panels (a–c).
Estimation of mitochondrial membrane potential in situ was done spectrofluorometrically using the indicator dye safranine O, as described previously. […] Fluorescence changes were monitored using the Hitachi F-7000 spectrofluorometer (excitation of 495 nm and emission of 586 nm).

mammalian mitochondria = conditions: cited from earlier work
T. cruzi trypomastigotes [5] = test: Trypomastigote attachment assay to glutaraldehyde-fixed Vero cells; type: cell-based, Trypanosoma cruzi; conditions: 30 min preincubation with 1 µM antimycin A; 1 h at 37 °C on fixed Vero cells
Procedure: (§5) We analyzed the growth rate of epimastigotes in LIT medium at different Ru265 concentrations (1 µM, 5 µM, and 10 µM). […] The presence of metabolic inhibitors affects attachment and invasion of T. cruzi trypomastigotes to mammalian cells since these are an active process which depends on the expenditure of parasite energy. Preincubation of trypomastigotes for 30 min with antimycin A, which blocks electron transport from cytochrome b to c1, decreased the ability of trypomastigotes to attach to glutaraldehyde-fixed cells (Figure 4b) and invade intact host cells (Figure 4c).
(§6) Figure 4 Effect of Ru265 on Trypanosoma cruzi. (a) Effect of Ru265 on epimastigote growth. […] After 1 h of incubation at 37 °C, the cells were washed, and the number of attached trypomastigotes was counted. […] After 4 h of incubation at 37 °C, the cells were washed, and the number of intracellular parasites was counted. […] (f) Routine respiration (initial oxygen flux values), leak respiration after the addition of 0.5 µg/mL of oligomycin A, and electron transfer system (ETS) capacity after the sequential additions of FCCP (0.2 μM each) were measured for each condition. […] (g) Representative experiment showing mitochondrial Ca^2+ uptake by intact epimastigotes in relative fluorescence units (RFU). […] (h) Changes in fluorescence (before and after ionomycin addition) from three experiments like that shown in panel (g). […]

T. cruzi trypomastigotes [6] = test: In vitro infection assay of Vero cells by trypomastigotes; type: cell-based, Trypanosoma cruzi; conditions: 30 min preincubation with 1 µM antimycin A; 4 h on Vero cells
Procedure: as §5, §6

Molecule	IC50 [1]	IC50 [2]	IC50 [3]	Effect on mitochondrial membrane potential (Δψm) and response to ADP [4]	Effective concentration range in mammalian mitochondria (mammalian mitochondria)	Ability of trypomastigotes to attach to glutaraldehyde-fixed cells (T. cruzi trypomastigotes [5])	Ability of trypomastigotes to invade intact host cells (T. cruzi trypomastigotes [6])
N.N.N.N.N.N.N.N.[Cl][Ru+3].[NH]=[Ru][Cl] [Ru265]	12.1 ± 2.3 nM	14.1 ± 1.3 nM	26.3 ± 2 nM	–	–	–	–
N.N.N.N.N.N.N.N.N.N.N.N.N.N.[Cl-].[Cl-].[Cl-].[Cl-].[Cl-].[Cl-].[O-2].[O-2].[Ru+3].[Ru+3].[Ru+4] [RuRed, ruthenium red]	148 ± 21.7 nM	11.9 ± 1.4 nM	117 ± 16.9 nM	did not significantly affect	effective in the submicromolar range	–	–
CCCCCC[C@H]1C(=O)O[C@H](C)[C@H](NC(=O)c2cccc(NC=O)c2O)C(=O)O[C@@H](C)[C@@H]1OC(=O)CC(C)C [antimycin A]	–	–	–	–	–	decreased	decreased
Ru360	46.7 ± 2.7 nM	63.6 ± 6.9 nM	186 ± 15.2 nM	did not significantly affect	–	–	–
